Measurements reported in patent publication US8168651B2, “Protein kinase modulators” (Cylene Pharmaceuticals, Inc., priority 2008, dated 2012).
Where two headings read alike, the source gives them in different places.

Assays:
recombinant human CK2 = recombinant human CK2 (Homo sapiens (Human), UniProt P68400); test: CK2 assay (cell-free, 33P-ATP filter plate); format: biochemical; conditions: for inhibition at 10 µM: read-out: CK2 % inhib @ 10 uM; for inhibition at 0.5 µM: 500 nM compound, cell-free assay, read-out: CK2: % inh 500 nM; for inhibition at 5 µM: read-out: CK2 % inhibition 5 uM, 5 uM
recombinant human PIM1 = recombinant human PIM1 (Homo sapiens (Human), UniProt P11309); test: PIM-1 kinase activity in cell-free in vitro assay; format: biochemical; conditions: cell-free assay; for inhibition at 0.5 µM: 500 nM compound, read-out: PIM-1: % inh 500 nM
[1] = read-out: CK2 % inhibition 1.0 uM, 1.0 uM

Chain of recombinant human PIM1 (P11309 whole entry): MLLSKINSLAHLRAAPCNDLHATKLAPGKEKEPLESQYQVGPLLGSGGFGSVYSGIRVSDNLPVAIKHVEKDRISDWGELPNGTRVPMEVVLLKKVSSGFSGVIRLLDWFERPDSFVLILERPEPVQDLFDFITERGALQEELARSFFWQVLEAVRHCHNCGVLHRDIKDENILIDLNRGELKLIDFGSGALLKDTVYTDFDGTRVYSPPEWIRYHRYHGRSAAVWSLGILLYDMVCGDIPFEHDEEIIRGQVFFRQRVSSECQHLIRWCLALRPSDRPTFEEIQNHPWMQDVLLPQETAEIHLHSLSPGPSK
Chain of recombinant human CK2 (P68400 whole entry): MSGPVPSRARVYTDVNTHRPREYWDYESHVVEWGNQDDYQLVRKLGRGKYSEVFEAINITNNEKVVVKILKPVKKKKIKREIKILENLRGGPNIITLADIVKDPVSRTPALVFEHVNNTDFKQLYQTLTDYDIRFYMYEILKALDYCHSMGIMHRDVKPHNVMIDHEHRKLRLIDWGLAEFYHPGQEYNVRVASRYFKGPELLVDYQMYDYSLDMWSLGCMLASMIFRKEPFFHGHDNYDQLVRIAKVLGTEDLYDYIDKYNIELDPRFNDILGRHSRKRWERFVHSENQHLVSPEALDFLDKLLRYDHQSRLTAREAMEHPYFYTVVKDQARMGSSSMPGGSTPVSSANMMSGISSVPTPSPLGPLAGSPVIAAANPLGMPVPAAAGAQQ
Chain of recombinant human CK2 (P67870 whole entry partner): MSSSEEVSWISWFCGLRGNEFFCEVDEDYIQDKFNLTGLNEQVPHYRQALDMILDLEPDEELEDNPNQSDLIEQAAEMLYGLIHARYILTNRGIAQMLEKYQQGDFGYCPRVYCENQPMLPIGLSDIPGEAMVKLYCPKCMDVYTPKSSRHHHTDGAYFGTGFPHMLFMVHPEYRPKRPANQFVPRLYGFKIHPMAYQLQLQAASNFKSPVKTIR

| SMILES | inhibition at 10 µM (recombinant human CK2) | inhibition at 0.5 µM (recombinant human CK2) | inhibition at 0.5 µM (recombinant human PIM1) | also measured |
| --- | --- | --- | --- | --- |
| O=c1[nH]c2ccccc2c2sccc12 | 0% | – | – | – |
| COC(=O)CNC(=O)c1ccc2c(c1)[nH]c(=O)c1ccsc12 | 10% | – | – | – |
| O=C(O)CCNC(=O)c1ccc2c(c1)[nH]c(=O)c1ccsc12 | 16% | – | – | – |
| O=C(Nc1nccs1)c1ccc2c(c1)[nH]c(=O)c1ccsc12 | 10% | – | – | – |
| O=C(NCCc1ccccn1)c1ccc2c(c1)[nH]c(=O)c1ccsc12 | -24% | – | – | – |
| CN(C)C(=O)c1ccc2c(c1)[nH]c(=O)c1ccsc12 | 3% | – | – | – |
| CC(=O)N1CCN(C(=O)c2ccc3c(c2)[nH]c(=O)c2ccsc23)CC1 | 7% | – | – | – |
| CC(C)(C)OC(=O)N1CCN(C(=O)c2ccc3c(c2)[nH]c(=O)c2ccsc23)CC1 | -25% | – | – | – |
| COc1ccccc1CNC(=O)c1ccc2c(c1)[nH]c(=O)c1ccsc12 | 8% | – | – | – |
| COc1ccc(CNC(=O)c2ccc3c(c2)[nH]c(=O)c2ccsc23)cc1 | 1% | – | – | – |
| NC1CCN(C(=O)c2ccc3c(c2)[nH]c(=O)c2ccsc23)CC1 | -3% | – | – | – |
| NC(=O)c1ccc2c(c1)[nH]c(=O)c1ccsc12 | -14% | – | – | – |
| O=c1[nH]c2cc(CO)ccc2c2sccc12 | 3% | – | – | – |
| CN1CCCCC1CNc1nc2cc(C#N)ccc2c2cscc12 (stereo not drawn) | – | 24.6% | 46.4% | – |
| CN(C)CCNc1nc2cc(C#N)ccc2c2cscc12 | – | 23.4% | 20% | – |
| CCN1CCCC1CNc1nc2cc(C#N)ccc2c2cscc12 (stereo not drawn) | – | 20.7% | 6.89% | – |
| CCN1CCCC1CNc1nc2cc(-c3nnn[nH]3)ccc2c2cscc12 (stereo not drawn) | – | 72.8% | 95.9% | IC50 (recombinant human PIM1): 79 nM |
| COCCNc1nc2cc(C#N)ccc2c2sccc12 | – | -18% | -30.6% | – |
| N#Cc1ccc2c(c1)nc(Oc1ccccc1)c1ccsc12 | – | -54.2% | -38.6% | – |
| COC(=O)c1cccc2c1[nH]c(=O)c1ccncc12 | – | 16.7% | -70.5% | – |
| N#Cc1ccc2c(c1)nc(OCC(F)(F)F)c1ccsc12 | – | -9.05% | -50.2% | – |
| N#Cc1ccc2c(c1)nc(OCc1ccccc1)c1ccsc12 | – | 1.85% | -18.4% | – |
| N#Cc1ccc2c(c1)nc(NCCN(CCO)CCO)c1ccsc12 | – | -9.97% | -17.7% | – |
| N#Cc1ccc2c(c1)nc(NCCC(F)(F)F)c1ccsc12 | – | -7.76% | -89.6% | – |

| SMILES | inhibition at 10 µM (recombinant human CK2) | inhibition at 0.5 µM (recombinant human CK2) | inhibition at 0.5 µM (recombinant human PIM1) | also measured |
| --- | --- | --- | --- | --- |
| N#Cc1ccc2c(c1)nc(NCC(F)(F)F)c1ccsc12 | – | -18.4% | -32% | – |
| c1ccc(COc2nc3cc(-c4nnn[nH]4)ccc3c3sccc23)cc1 | – | 5.71% | -6.97% | – |
| FC(F)(F)COc1nc2cc(-c3nnn[nH]3)ccc2c2sccc12 | – | 33% | 32.3% | – |
| FC(F)(F)CNc1nc2cc(-c3nnn[nH]3)ccc2c2sccc12 | – | 49% | 93.2% | – |
| CN1CCC(N(C)c2nc3cc(CN)ccc3c3sccc23)C1 (stereo not drawn) | – | -35.3% | -39.8% | – |
| O=C(O)c1ccc2c(c1)nc(NC1CCCCC1)c1ccncc12 | – | 95.8% | 64.8% | – |
| O=C(O)c1ccc2c(c1)nc(NC1CCCC1)c1ccncc12 | – | 101% | 106% | IC50 (recombinant human PIM1): 565 nM |
| N#Cc1ccc2c(c1)nc(Nc1cccc(F)c1)c1ccsc12 | – | 3.06% | -4.85% | – |
| O=c1[nH]c2cc(-c3nnn[nH]3)ccc2c2cnccc12 [drawing 568] | – | – | – | inhibition at 1 µM (recombinant human CK2; at 1 μM, read-out: CK2 Inhibition): 46% |
| N#Cc1ccc2c(c1)nc(Cl)c1ccsc12 [drawing 587] | – | – | – | inhibition at 5 µM (recombinant human CK2): 63% |
| c1ccc(Nc2nc3ccccc3c3sccc23)cc1 [drawing 588] | – | – | – | inhibition at 5 µM (recombinant human CK2): 0% |
| CN(C)CCNc1nc2ccccc2c2sccc12 [drawing 589] | – | – | – | inhibition at 5 µM (recombinant human CK2): 0% |
| O=C(O)c1ccc2c(c1)nc(N1CCOCC1)c1ccsc12 [drawing 590] | – | – | – | inhibition at 5 µM (recombinant human CK2): 28% |
| CN(C)CCNc1nc2cc(C#N)ccc2c2sccc12 [drawing 612] | – | – | – | inhibition at 1 µM (recombinant human CK2; [1]): 0% |
| N#Cc1ccc2c(c1)nc(Nc1ccccc1)c1ccsc12 [drawing 614] | – | – | – | inhibition at 1 µM (recombinant human CK2; [1]): 0% |
| NC(=O)c1ccc2c(c1)nc(Nc1ccccc1)c1ccsc12 [drawing 615] | – | – | – | inhibition at 1 µM (recombinant human CK2; [1]): 0% |
| O=c1[nH]c(-c2ccc3c(c2)nc(Nc2ccccc2)c2ccsc23)no1 [drawing 617] | – | – | – | inhibition at 1 µM (recombinant human CK2; [1]): 0% |
| O=C(NCc1ccccc1)c1ccc2c(c1)[nH]c(=O)c1ccsc12 [drawing 671] | – | – | – | CK2 % inhib @ 10 uM (recombinant human CK2): 14% |
| O=C(NCc1ccccc1)c1ccc2c(c1)[nH]c(=O)c1ccsc12 [drawing 672] | – | – | – | CK2 % inhib @ 10 uM (recombinant human CK2): −1% |
| COC(=O)c1ccccc1NC(=O)c1ccc2c(c1)[nH]c(=O)c1ccsc12 [drawing 673] | – | – | – | CK2 % inhib @ 10 uM (recombinant human CK2): 5% |
| COC(=O)c1ccccc1NC(=O)c1ccc2c(c1)[nH]c(=O)c1ccsc12 [drawing 674] | – | – | – | CK2 % inhib @ 10 uM (recombinant human CK2): −16% |
| CC(C)(C)OC(=O)NC1CCN(C(=O)c2ccc3c(c2)[nH]c(=O)c2ccsc23)CC1 [drawing 676] | – | – | – | CK2 % inhib @ 10 uM (recombinant human CK2): 10% |
| CC(C)(C)OC(=O)NC1CCN(C(=O)c2ccc3c(c2)[nH]c(=O)c2ccsc23)CC1 [drawing 677] | – | – | – | CK2 % inhib @ 10 uM (recombinant human CK2): 1% |

More lines, main results first:

| inhibition at 10 µM (recombinant human CK2) | inhibition at 0.5 µM (recombinant human CK2) | inhibition at 0.5 µM (recombinant human PIM1) | SMILES | also measured |
| --- | --- | --- | --- | --- |
| 8% | – | – | CC(C)(C)OC(=O)CCNC(=O)c1ccc2c(c1)[nH]c(=O)c1ccsc12 | – |
| 12% | – | – | O=C(O)CNC(=O)c1ccc2c(c1)[nH]c(=O)c1ccsc12 | – |
| -9% | – | – | O=C(Nc1cccnc1)c1ccc2c(c1)[nH]c(=O)c1ccsc12 | – |
| -10% | – | – | O=C(Nc1ccc(Cl)cc1)c1ccc2c(c1)[nH]c(=O)c1ccsc12 | – |
| 7% | – | – | O=C(NCCc1cnc[nH]1)c1ccc2c(c1)[nH]c(=O)c1ccsc12 | – |
| -9% | – | – | O=C(NCCN1CCOCC1)c1ccc2c(c1)[nH]c(=O)c1ccsc12 | – |
| 2% | – | – | O=C(c1ccc2c(c1)[nH]c(=O)c1ccsc12)N1CCOCC1 | – |
| -34% | – | – | CCCNC(=O)c1ccc2c(c1)[nH]c(=O)c1ccsc12 | – |
| -19% | – | – | COCCNC(=O)c1ccc2c(c1)[nH]c(=O)c1ccsc12 | – |
| -22% | – | – | COc1ccc(CCNC(=O)c2ccc3c(c2)[nH]c(=O)c2ccsc23)cc1OC | – |
| 0% | – | – | O=C(NC1CC1)c1ccc2c(c1)[nH]c(=O)c1ccsc12 | – |
| -13% | – | – | Cc1cc(CNC(=O)c2ccc3c(c2)[nH]c(=O)c2ccsc23)no1 | – |
| 3% | – | – | O=C(NCc1ccccn1)c1ccc2c(c1)[nH]c(=O)c1ccsc12 | – |
| 1% | – | – | O=C(NCCc1ccccc1)c1ccc2c(c1)[nH]c(=O)c1ccsc12 | – |
| -13% | – | – | O=C(NCc1ccncc1)c1ccc2c(c1)[nH]c(=O)c1ccsc12 | – |
| -24% | – | – | O=C(NCc1cccnc1)c1ccc2c(c1)[nH]c(=O)c1ccsc12 | – |
| -1% | – | – | O=C(Nc1ccc(CN2CCS(=O)(=O)CC2)cc1)c1ccc2c(c1)[nH]c(=O)c1ccsc12 | – |
| -27% | – | – | O=C(c1ccc2c(c1)[nH]c(=O)c1ccsc12)N1CCNCC1 | – |
| 41% | – | – | O=C(Nc1ccccc1C(=O)O)c1ccc2c(c1)[nH]c(=O)c1ccsc12 | – |
| – | 66% | 89.7% | CN(C)CCNc1nc2cc(-c3nnn[nH]3)ccc2c2cscc12 | IC50 (recombinant human PIM1): 87 nM |

| inhibition at 10 µM (recombinant human CK2) | inhibition at 0.5 µM (recombinant human CK2) | inhibition at 0.5 µM (recombinant human PIM1) | SMILES | also measured |
| --- | --- | --- | --- | --- |
| – | 57.4% | 93.9% | CN1CCCCC1CNc1nc2cc(-c3nnn[nH]3)ccc2c2cscc12 (stereo not drawn) | IC50 (recombinant human PIM1): 54 nM |
| – | 107% | 79.4% | CCN1CCCC1CNc1nc2cc(C(=O)O)ccc2c2cnccc12 (stereo not drawn) | IC50 (recombinant human PIM1): 155 nM |
| – | 103% | 82.5% | CN1CCCCC1CNc1nc2cc(C(=O)O)ccc2c2cnccc12 (stereo not drawn) | IC50 (recombinant human PIM1): 211 nM |
| – | 80.1% | 88% | CN1CCCCC1CNc1nc2cc(C(=O)O)ccc2c2sccc12 (stereo not drawn) | IC50 (recombinant human PIM1): 104 nM |
| – | 92.8% | 93.3% | CCN1CCCC1CNc1nc2cc(C(=O)O)ccc2c2sccc12 (stereo not drawn) | IC50 (recombinant human PIM1): 100 nM |
| – | -29.4% | -9.29% | CCN1CCCC1CNc1nc2cc(C#N)ccc2c2ccsc12 (stereo not drawn) | – |
| – | -17% | -29.4% | CC(C)(C)OC(=O)N1CCC(Nc2nc3cc(C#N)ccc3c3ccsc23)CC1 | – |
| – | -16.8% | 115% | CN(C)CCNc1nc2cc(C#N)ccc2c2ccsc12 | – |
| – | 5.51% | 59.5% | CN1CCCCC1CNc1nc2cc(C#N)ccc2c2ccsc12 (stereo not drawn) | – |
| – | 1.86% | 80% | CCN1CCCC1CNc1nc2cc(-c3nnn[nH]3)ccc2c2ccsc12 (stereo not drawn) | – |
| – | 53.7% | 111% | c1cc2c(s1)c(NC1CCNCC1)nc1cc(-c3nnn[nH]3)ccc12 | IC50 (recombinant human PIM1): 138 nM |
| – | 24.2% | 99.2% | CN(C)CCNc1nc2cc(-c3nnn[nH]3)ccc2c2ccsc12 | IC50 (recombinant human PIM1): 267 nM |
| – | -29.1% | 14.7% | CN1CCCCC1CNc1nc2cc(-c3nnn[nH]3)ccc2c2ccsc12 (stereo not drawn) | – |
| – | -17.1% | -30% | COC(C)(C)CNc1nc2cc(C#N)ccc2c2sccc12 | – |
| – | 47.2% | 65% | COCCNc1nc2cc(-c3nnn[nH]3)ccc2c2sccc12 | – |
| – | 51.3% | 101% | OCCNc1nc2cc(-c3nnn[nH]3)ccc2c2sccc12 | IC50 (recombinant human PIM1): 143 nM |
| – | -18% | -43.2% | CN(C)CCOc1nc2cc(C#N)ccc2c2sccc12 | – |
| – | 31.4% | 91.6% | CN(C)CCOc1nc2cc(-c3nnn[nH]3)ccc2c2sccc12 | – |
| – | 58.4% | 92.3% | FC(F)(F)CCNc1nc2cc(-c3nnn[nH]3)ccc2c2sccc12 | – |
| – | -50.4% | -38.5% | CN1CCC(N(C)c2nc3cc(CNC(=O)Nc4cccc(Cl)c4)ccc3c3sccc23)C1 (stereo not drawn) | – |
